Experimental data from patent US6967196B1, “Sulfonamide compounds and uses thereof” (Bristol-Myers Squibb Company, priority 1999, dated 2005).
Counter-ions that a name gives are not always drawn. Like-named read-outs stand apart in the source and are kept apart here. Values belong to the compound of their own block, whether it stands above or below them.

Test system: amyloid β production in transfected H4 (human neuroglioma) cells stably expressing APP constructs
Assay: In vitro cell-based assay of inhibitors of amyloid β production (ELISA)
Details: amyloid β in medium by ELISA
Description: In Vitro Cell-Based Assay of Inhibitors of Amyloid β Production
Transfected H4 (human neuroglioma) cells stably expressing APP constructs are used to identify and assess inhibitors of Aβ production. In brief, cells lines are exposed to compounds, and the effect of each compound on amyloid β production is determined by measuring the amount of amyloid β produced using an enzyme linked immunosorbent assay (ELISA) that detects amyloid β (see, for example, Seubert et al., (1992) Nature, 359:325-327).
Transfected cells that stably express wild-type and variant forms of APP are plated in 96-well format plates at a density sufficient for the rapid detection of the secreted amyloid β (experimentally predetermined for a particular stable cell population). Cells are plated at least six hours prior to the introduction of the test compound at which time the growth medium is replaced by fresh medium containing the compound to be tested. All synthetic agents are initially screened at doses ranging from 10-100 μM. Higher dilutions of agents can be used to minimize cytotoxicity. Incubation of cells with a test compound continues for approximately 16 hours at which time aliquots of medium from each well are removed and assayed for amyloid β.
ELISA is carried out by methods known in the art (see, e.g., Haass et al., Antibodies: A Laboratory Manual, Harlow and lane, Editors, Cold Spring Harbor Press, 1988) The capture antibody is typically a mouse monoclonal (IgG1/kβ-APPa) which recognizes the carboxyl terminal epitope of amyloid β. The specificity of the capture antibody insures measurement of amyloid β without interference from other secreted APP fragments that share amino acid sequence (amyloid β 1-16) homology with amyloid β but lack the carboxy-terminal region. The detecting antibody is typically an affinity-purified rabbit polyclonal antibody that is specific for the amino terminus of amyloid β.
Results from test compounds are compared to results obtained when cells are treated with control agents. Amyloid β levels are determined by comparison to a standard curve obtained by subjecting a range of known amounts of amyloid β to the ELISA.
A compound is identified as “active” when it inhibits cellular production of amyloid β relative to levels in control samples by at least 50% at the initial tested concentration without significant cytotoxicity. Active compounds are then assayed in dose-response experiments to determine the lowest dose of compound necessary for inhibition of amyloid β production.

[1] = transfected H4 cells stably expressing APP constructs, approximately 16 hours incubation, read-out: ACTIVITY (IC50, inhibition of amyloid β production)
[2] = transfected H4 cells stably expressing APP, approximately 16 hours incubation, read-out: ACTIVITY (IC50, inhibition of amyloid β production)
[3] = Homo sapiens, 16 h, transfected H4 cells stably expressing APP, approximately 16 hours incubation, read-out: ACTIVITY (IC50, inhibition of amyloid β production)
[4] = Homo sapiens, 16 h, transfected H4 cells expressing APP, approximately 16 hours incubation, read-out: ACTIVITY (IC50, inhibition of amyloid β production)
[5] = transfected H4 cells stably expressing APP, approximately 16 hours incubation, Table B, read-out: ACTIVITY (IC50, inhibition of amyloid β production)
[6] = Homo sapiens, 16 h, transfected H4 cells stably expressing APP constructs, approximately 16 hours incubation, read-out: ACTIVITY (IC50, inhibition of amyloid β production)
[7] = transfected H4 cells stably expressing APP, approx. 16 h incubation, read-out: ACTIVITY (IC50, inhibition of amyloid β production)

Compound: CC(C)Oc1c(NCCC[C@@H](C)N(c2cc(Cl)ccc2Cl)S(=O)(=O)c2ccc(Cl)cc2)c(=O)c1=O [Example 1128, 4-chloro-N-(2,5-dichlorophenyl)-N-[4-(2-isopropoxy-3,4-dioxo-1-cyclobutenyl)amine-1(R)-methylbutyl]benzenesulfonamide]
- IC50 [1]: 50 to 100 nM

Compound: N-{3-[2-(1-{[(4-chlorophenyl)sulfonyl]-2,5-difluoroanilino}ethyl)phenoxy]propyl}-4-iodobenzamide [Example 824]
- IC50 [2]: 100 to 500 nM

Compound: C[C@H](CCNc1c(NCC[C@@H](C)N(c2cc(F)ccc2F)S(=O)(=O)c2ccc(Cl)cc2)c(=O)c1=O)N(c1cc(F)ccc1F)S(=O)(=O)c1ccc(Cl)cc1 [Example 132, 4-Chloro-N-(2,5-difluorophenyl)-N-[3-[2-[4-chloro-N-(2,5-difluorophenyl)-N-[(3-amino)-1(R)-methylpropyl]benzenesulfonamide]-3,4-dioxo-1-cyclobutenyl]amine-1(R)-methylpropyl]benzenesulfonamide]
- IC50 (Table B, transfected H4 cells stably expressing APP, approximately 16 hours incubation, read-out: ACTIVITY (inhibitory concentration IC50, inhibition of amyloid β production)): ≤ 25 nM

Compound: N-{3-[2-({[(4-chlorophenyl)sulfonyl]-2,5-difluoroanilino}methyl)phenoxy]propyl}-4-ethoxy-N-methylbenzamide [Example 1010]
- IC50 [2]: > 500 nM

Compound: N-{2-[2-(1-{[(4-chlorophenyl)sulfonyl]-2,5-difluoroanilino}ethyl)phenoxy]ethyl}-N-methylcyclohexanecarboxamide [Example 511]
- IC50 [5]: 100 to 500 nM

Compound: CN(CCCOc1ccccc1CN(c1cc(F)ccc1F)S(=O)(=O)c1ccc(Cl)cc1)C(=O)c1cc([N+](=O)[O-])cc([N+](=O)[O-])c1 [Example 958, N-{3-[2-({[(4-chlorophenyl)sulfonyl]-2,5-difluoroanilino}methyl)phenoxy]propyl}-N-methyl-3,5-dinitrobenzamide]
- IC50 [2]: > 500 nM

Compound: C[C@H](COC(=O)NCCc1c[nH]cn1)N(c1cc(Cl)ccc1F)S(=O)(=O)c1ccc(Cl)cc1 [Example 1245, 4-Chloro-N-(2-fluoro-5-chlorophenyl)-N-[2-[[N′-[2-(1H-imidazol-4-yl)ethylamino]carbonyl]oxy]-(R)-1-methylethyl]benzenesulfonamide]
- IC50 [1]: ≤ 25 nM

Compound: C[C@H](COC(=O)N(CCCn1ccnc1)CC1CC1)N(c1cc(Cl)ccc1CO)S(=O)(=O)c1ccc(Cl)cc1 [Example 1251, 4-Chloro-N-[5-chloro-2-(hydroxymethyl)phenyl]-N-[2-[[[N′-[3-(1H-imidazol-1-yl)propyl]-N′-cyclopropylmethylamino]carbonyl]oxy]-(R)-1-methylethyl]benzenesulfonamide]
- IC50 [1]: ≤ 25 nM

Compound: N-{3-[2-(1-{[(4-chlorophenyl)sulfonyl]-2,5-difluoroanilino}ethyl)phenoxy]propyl}-2,4,5-trifluoro-N-methylbenzamide [Example 710]
- IC50 [7]: 100 to 500 nM

Compound: N-{3-[2-({[(4-chlorophenyl)sulfonyl]-2,5-difluoroanilino}methyl)phenoxy]propyl}-2,3,4-trifluoro-N-methylbenzamide [Example 864]
- IC50 [2]: 100 to 500 nM

Compound: O=S(=O)(c1ccc(Cl)cc1)N(Cc1ccccc1OCc1ccncc1)c1ccccc1 [Example 1030, 4-chloro-N-phenyl-N-[2-(4-pyrdinylmethoxy)benzyl]benzenesulfonamide hydrochloride]
- IC50 [2]: > 500 nM

Compound: S-{3-[2-({[(4-chlorophenyl)sulfonyl]-2,5-difluoroanilino}methyl)phenoxy]propyl} ethanethioate [Example 1014]
- IC50 [2]: > 500 nM

Compound: N-{3-[2-(1-{[(4-chlorophenyl)sulfonyl]-2,5-difluoroanilino}ethyl)phenoxy]propyl}-4-(trifluoromethoxy)benzamide [Example 920]
- IC50 [2]: > 500 nM

Compound: CC(CCCN)N(c1cc(Cl)ccc1Cl)S(=O)(=O)c1ccc(Cl)cc1 (stereo not drawn) [Example 1152]
- IC50 [1]: 100 to 500 nM

Compound: COC(=O)[C@H](CC(C)C)NC(=O)CCCC[C@@H](C)N(c1cc(Cl)ccc1F)S(=O)(=O)c1ccc(Cl)cc1 [Example 543, (R)-4-Chloro-N-(5-chloro-2-fluorophenyl)-N-[6-[N-(S)-[1-(methoxycarbonyl)-3-methylbutyl]amino]-1-methyl-6-oxohexyl]benzenesulfonamide]
- IC50 [7]: 100 to 500 nM

Compound: 2-bromo-N-{3-(2-({[(4-chlorophenyl)sulfonyl]-2,5-difluoroanilino}methyl)phenoxy]propyl}-N-methylbenzamide [Example 641]
- IC50 [7]: 100 to 500 nM

Compound: O=S(=O)(c1ccc(Cl)cc1)N(Cc1ccccc1OCCCNC1CC1)c1ccccc1 [Example 297, 4-Chloro-N-{2-[3-(cyclopropylamino)propoxy]benzyl}-N-phenylbenzenesulfonamide Hydrochloride]
- IC50 [5]: 50 to 100 nM

Compound: 2-((1R)-1-{[(4-chlorophenyl)sulfonyl]-2,5-difluoroanilino}ethyl)benzyl 4-fluorobenzylcarbamate [Example 748]
- IC50 [7]: 100 to 500 nM

Compound: 5-[2-((1R)-1-{[(4-chlorophenyl)sulfonyl]-2,5-difluoroanilino}ethyl)-5-fluorophenyl]butanoic acid [Example 1070]
- IC50 [2]: > 500 nM

Further lines, results first:

- IC50 [3]: > 500 nM
Compound: O=S(=O)(c1ccc(Cl)cc1)N(Cc1ccccc1OCCCS)c1ccccc1 [Example 1018, 4-chloro-N-phenyl-N-[2-(3-sulfanylpropoxy)benzyl]benzenesulfonamide]

- IC50 [4]: > 500 nM
Compound: C[C@H](C(=O)NCc1ccc(C2=CSNN2)cc1)N(c1cc(Cl)ccc1F)S(=O)(=O)c1ccc(Cl)cc1 [Example 1366]

- IC50 [6]: 25 to 50 nM
Compound: CC(=O)NCCC[C@@H](C)N(c1cc(Cl)ccc1Cl)S(=O)(=O)c1ccc(Cl)cc1 [Example 1113, 4-chloro-N-(2,5-dichlorophenyl)-N-[4-(acetylamino)-1(R)-methylbutyl]benzenesulfonamide]

- IC50 [3]: > 500 nM
Compound: C=CCN(Cc1ccccc1OCCCN1CCCCC1)S(=O)(=O)c1ccc(Cl)cc1 [Example 985, N-allyl-4-chloro-N-{2-[3-(1-piperidinyl)propoxy]benzyl}benzenesulfonamide hydrochloride]

- IC50 [2]: > 500 nM
Compound: methyl [{2-[2-(1-{[(4-chlorophenyl)sulfonyl]-2,5-difluoroanilino}ethyl)phenoxy]ethyl}(methyl)amino](oxo)acetate [Example 929]

- IC50 [6]: > 10000 nM
Compound: O=S(=O)(c1ccc(Cl)cc1)N(Cc1cc(Cl)ccc1C#CCCO)c1ccccc1 [Example 1089, 4-chloro-N-[5-chloro-2-(4-hydroxy-1-butynyl)benzyl]-N-phenylbenzenesulfonamide]

- IC50 [3]: > 500 nM
Compound: COc1cc(C(=O)N2CCCCC2CCOc2ccccc2CN(c2cc(F)ccc2F)S(=O)(=O)c2ccc(Cl)cc2)cc(OC)c1OC (stereo not drawn) [Example 938, 4-chloro-N-(2,5-difluorophenyl)-N-(2-{2-[1-(3,4,5-trimethoxybenzoyl)-2-piperidinyl]ethoxy}benzyl)benzenesulfonamide]

- IC50 [4]: ≤ 25 nM
Compound: C[C@H](COC(=O)NC1CCCCC1)N(c1cc(Cl)ccc1CO)S(=O)(=O)c1ccc(Cl)cc1 [Example 1284]

- IC50 [6]: ≤ 25 nM
Compound: CNS(=O)(=O)CCC[C@@H](C)N(c1cc(Cl)ccc1Cl)S(=O)(=O)c1ccc(Cl)cc1 [Example 1199, 4-chloro-N-[2,5-dichlorophenyl]-N-[4-[(methylamino)sulfonyl]-1(R)-methylbutyl]benzenesulfonamide]

- IC50 [1]: > 500 nM
Compound: C[C@H](CCS(=O)(=O)CC(=O)O)N(c1cc(Cl)ccc1Cl)S(=O)(=O)c1ccc(Cl)cc1 [Example 1197, (6R)-6-[(2,5-dichlorophenyl)-[(4-chlorophenyl)sulfonyl]-amino]-3-thioheptanoic acid, 3,3-dioxide]

- IC50 [4]: 100 to 500 nM
Compound: C[C@H](C(=O)NCCc1ccccn1)N(c1cc(Cl)ccc1F)S(=O)(=O)c1ccc(Cl)cc1 [Example 1339]
